Data on one compound can be found in patent US20220265775A1, “COMPOSITIONS AND METHODS FOR TREATING PULMONARY EDEMA OR LUNG INFLAMMATION” (priority 2019, published 2022).

In one data set the test system is RLE-6TN cells. The experiment in a line: RLE-6TN cell survival under hyperoxia and recovery, viable cells counted by trypan blue exclusion. It is filed as cell-based, rat. The protocol: FIG. 7. […] The cells were cultured in DMEM/F12 with 10% FBS in 21% O2 and 5% CO2 overnight. […] The viable cells are counted immediately after 72-hour hyperoxia exposure. Cell viability is assessed with trypan blue. The amount of viable cells under specific conditions is presented as a percentage of the cell number from hyperoxia alone. Data are mean±s.d. of four independent experiments with *=P<0.05; **=P<0.01.
FIG. 8. […] In both (A) and (B), the number of viable cells under specific conditions is presented as a percentage of the cell number related to hyperoxia alone in the same experiment. Data are mean s.d. of four independent experiments with *=P<0.05; **=P<0.01.
FIG. 10. HO-1 upregulation is required for T3-increased RLE-6TN cell survival in hyperoxia. […] The cells were then collected for Western Blot analysis. (B) The cells were incubated in 21% O2 and 5% CO2 for 72 hours in the present of HO-1 inhibitor Tin Protoporphyrin IX (10^−6M). […] Cell viability is assessed with trypan blue. The number of viable cells under specific conditions is presented as a percentage of the cell number related to hyperoxia alone. Data are mean±s.d. of three independent experiments with *=P<0.05; **=P<0.01.
FIG. 11. PI3K inhibitor wortmannin blocked T3-induced cell survival in hyperoxia. […] Cell viability is assessed with trypan blue. The number of viable cells under specific conditions is presented as a percentage of the cell number related to hyperoxia alone. Data are mean±s.d. of four independent experiments with *=P<0.05; **=P<0.01.
At the end of the hyperoxia exposure period, the viable cells were counted by trypan blue dye exclusion.

A further data set concerns Nrf2. The experiment in a line: Western blot of total cellular and nuclear Nrf2 protein in RLE-6TN cells under hyperoxia. It is filed as cell-based, rat. As to conditions: 24 hours of hyperoxia, 10^−6 M T3. On the procedure: FIG. 9. […] The cells were then collected for Western Blot analysis. (A) Cellular total Nrf2 protein; (B) Nuclear Nrf2.
Nuclei were extracted with NE-PER nuclear and cytoplasmic extraction reagents kit (Thermo Fisher Scientific, Inc., Waltham, Mass.) following the manufacturer's instruction.
The cells were lysed in lysis buffer containing 20 mM Tris HCl (pH 7.5), 150 mM NaCl, 1 mM EDTA, 1 mM EGTA, 1% (vol/vol) Triton X-100 with protease inhibitors (1 mM PMSF, 2 μg/ml pepstatin, and 10 μg/ml each of aprotinin and leupeptin), and phosphatase inhibitors (2.5 mM sodium pyrophosphate, 1 mM β-glycerophosphate, and 1 mM Na3VO4). The lysate was drawn 10 times through a 25-gauge needle on ice for further lysis and then was centrifuged at 13,000 rpm for 15 minutes at 4° C. The supernatant was collected, and the protein concentrations were determined by use of the BCA protein assay kit (Sigma-Aldrich, St. Louis, Mo.). Immediately after this step, equal amounts of protein were subjected to Western blotting analysis.

Data set [1] has as its system hyperoxia-induced lung injury. Kind of data set: Wet-dry lung weight ratio in hyperoxia-exposed rats. As to conditions: 60 hours of hyperoxia (O2 with T3), intraperitoneal T3 12.5 μg/kg body weight each 12 hours, O2 alone 6.61±0.604, p=0.0495. It is filed as in vivo, Sprague Dawley rats. The source says: (§1) All experimental protocols for animal treatments were approved by the University of Minnesota Institutional Animal Care and Use Committee. […] The room-air control rats were kept in the University animal housing facility. At the end of hyperoxic exposure, rats were sacrificed by intraperitoneal pentobarbital injection, and the lungs were harvested; the right lobes were allocated for histopathology, measurement of lung tissue myeloperoxidase (MPO) activity and wet-to-dry weight ratio. The left lobes underwent bronchoalveolar lavage (BAL) to determine BAL protein concentrations and differential cell counts.
A portion of the right lung was rinsed briefly in PBS, blotted, and then weighed to obtain the “wet” weight. Lungs then were dried in an oven at 80° C. for seven days to obtain the “dry” weight.

Data set [2] relates to hyperoxia-induced lung injury. The experiment in a line: Lung lavage (BAL) analyses in hyperoxia-exposed rats: protein concentration and cell counts. It is filed as in vivo, Sprague Dawley rats.
Source text: as §1
Bronchoalveolar lavage (BAL) of the left lung was performed using a modification of a method previously described (Pace et al., Exp Lung Res 35:380-398, 2009). Briefly, 4 mls of ice-chilled 1×PBS (pH 7.4) were instilled into the left lung, withdrawn, and re-instilled two subsequent times prior to analysis of the lavage fluid. The retrieved BAL fluid was centrifuged at 1500 rpm for 10 minutes to remove cells and debris. The cell pellet was resuspended in 1 ml of 1×PBS (pH 7.4) and total cell number was counted using a hemocytometer. BAL cytospin preparations were stained using the Hema3 stain kit (Thermo Fisher Scientific, Inc., Waltham, Mass.) to identify the nucleated cells. The protein concentration was determined on the supernatants of BAL fluid using a standard BCA assay (Sigma-Aldrich, St. Louis, Mo.).

In data set [3] the test system is hyperoxia-induced lung injury. The experiment in a line: Histopathological evaluation of lung sections of hyperoxia-exposed rats. It is filed as in vivo, Sprague Dawley rats. The following applies: 60 hours of hyperoxia, systemic T3 supplementation.
Source text: FIG. 18. […] (A) Control: room air; (B) Hyperoxia; (C) Hyperoxia+T3.
as §1
Lung tissue was removed and inflation fixed at 20 cm water pressure in 4% paraformaldehyde, paraffin embedded, cut as 5 micron sections and mounted onto poly-L-lysine slides. Sections were deparaffinized in xylene, rehydrated through a graded alcohol series in methanol, and placed in a 98° C. water bath for 30 minutes in citrate buffer (pH 6.0) for antigen retrieval. After quenching with 0.3% hydrogen peroxide in PBS, sections were incubated in normal serum for 30 minutes and for 15 minutes each with Avidin/Biotin Blocking Kit (Vector Laboratories, Inc., Burlingame, Calif.). […]

Data set [4] in a line: Preliminary tolerability of intratracheal instillation of liothyronine sodium in rats. It is filed as in vivo. The following applies: preliminary studies, pH of >10.0 as supplied commercially.
Description: Therefore, the liothyronine sodium and the vehicle were adjusted to neutral pH (6.0-8.0) with sterile 1.0 N HCl (Sigma-Aldrich, St. Louis, Mo.) added aseptically in a biosafety cabinet prior to intratracheal instillation into animals. Using aseptic technique, vials of liothyronine sodium were opened and the entire contents were transferred into sterile 1.5 mL Eppendorf tubes. 80-90 μL of 1.0 N HCl was added to the tube and gently vortexed, and the pH was measured using pH test strips (pH 4.5 to 10.0, Ricca Chemical Co., Arlington, Tex.). Additional HCl was titrated in gradually, as needed, until the pH was in the desired range. […] This solution was stored at 4° C. and used for up to 26 hours after pH adjustment procedure. […] The vehicle was also adjusted to neutral pH (6.0-8.0) with 1.0 N HCl as described above. Using aseptic technique the vehicle was filter sterilized and aliquoted into 21 sterile disposable tubes (5 mL each) and stored at 4° C., and a new tube was opened for each day of use. Normal Saline (0.9% Sodium Chloride Injection USP, B. Braun Medical, Inc., Bethlehem, Pa.), was stored at room temperature. A new package was opened for each day of use.

For the compound `N[C@@H](Cc1cc(I)c(Oc2ccc(O)c(I)c2)c(I)c1)C(=O)O` [T3, triiodothyronine], in the data set with RLE-6TN cells (90% oxygen for 24 or 48 hours, compound present only during recovery in 21% O2), the “number of viable AT2 cells at 48 hours of recovery” value was “significantly increased the number of viable AT2 cells”. Besides, the “increase in number of surviving cells compared with hyperoxia control” value in the data set on RLE-6TN cells (90% oxygen for 72 hours, 10^−6M) is about 2.5 fold. The “protective effect on viable AT2 cell number after recovery in room air” value in the data set on RLE-6TN cells (hyperoxia 72 hours with T3, then room air 72 hours with no supplemental T3) was “persisted and was of similar magnitude”. Further, in the data set with Nrf2, the “nuclear Nrf-2 protein expression” value was “significantly increased both total cellular and nuclear Nrf-2 protein expression”; the “total cellular Nrf-2 protein expression” value is “significantly increased both total cellular and nuclear Nrf-2 protein expression”. Further, the “wet-to-dry lung weight ratio” value in data set [1] worked out at 5.82±0.197. Further, the “neutrophils among BALF cells” value in data set [2] (rats after hyperoxia with T3 treatment (data not shown)) is listed as “relatively few of the BALF cells after hyperoxia were neutrophils”. In addition, the BALF cell numbers result in data set [2] (rats, 95% oxygen, 48 hours and 60 hours, T3 administration vs hyperoxia alone) is “significantly reduced the BALF cell numbers”. The BALF protein concentration result in data set [2] (rats, hyperoxia, 48 hour and 60 hour time points, T3 administration vs hyperoxia alone) is reported as “attenuated significantly the hyperoxic increases”. Also, in data set [3], the “lung morphology (histopathology)” value is “persistence of virtually normal lung morphology”. Also, the “tolerability of intratracheal instillation” value in data set [4] is “do not tolerate”.
